Laboratory results as given in ChEMBL document CHEMBL5050844 (2019).

Tests used:
[1] = Induction of anti-CD3/CD28 antibodies-stimulated human T cell activation at 0.3 uM assessed fold increase in IL-2 secretion measured by ELISA assay; assay type: functional, T cell line
[2] = Induction of anti-CD3/CD28 antibodies-stimulated human T cell activation at 0.3 uM assessed fold increase in CD25 expression measured by ELISA assay; assay type: functional, T cell line
[3] = Induction of anti-CD3 antibodies-stimulated human T cell activation at 1 uM assessed fold increase in CD25 expression measured by ELISA assay; assay type: functional, T cell line; also: reference of the scale not given here
[4] = Induction of anti-CD3 antibodies-stimulated human T cell activation at 1 uM assessed fold increase in IL-2 secretion measured by ELISA assay; assay type: functional, T cell line; also: reference of the scale not given here
[5] = biological target: E3 ubiquitin-protein ligase CBL-B (Homo sapiens, UniProt Q13191); test: Inhibition of N-terminal Avi-tagged human CBL-B (36 to 427 residues) incubated with 60 nM Src kinase for 1.5 hrs followed by incubation with fluorescently labeled UbcH5B-Ub for 1 hr and measured by TR-FRET assay; assay type: single protein
E3 ubiquitin-protein ligase CBL-B, sequence (Q13191 whole entry, the tested form may be a part): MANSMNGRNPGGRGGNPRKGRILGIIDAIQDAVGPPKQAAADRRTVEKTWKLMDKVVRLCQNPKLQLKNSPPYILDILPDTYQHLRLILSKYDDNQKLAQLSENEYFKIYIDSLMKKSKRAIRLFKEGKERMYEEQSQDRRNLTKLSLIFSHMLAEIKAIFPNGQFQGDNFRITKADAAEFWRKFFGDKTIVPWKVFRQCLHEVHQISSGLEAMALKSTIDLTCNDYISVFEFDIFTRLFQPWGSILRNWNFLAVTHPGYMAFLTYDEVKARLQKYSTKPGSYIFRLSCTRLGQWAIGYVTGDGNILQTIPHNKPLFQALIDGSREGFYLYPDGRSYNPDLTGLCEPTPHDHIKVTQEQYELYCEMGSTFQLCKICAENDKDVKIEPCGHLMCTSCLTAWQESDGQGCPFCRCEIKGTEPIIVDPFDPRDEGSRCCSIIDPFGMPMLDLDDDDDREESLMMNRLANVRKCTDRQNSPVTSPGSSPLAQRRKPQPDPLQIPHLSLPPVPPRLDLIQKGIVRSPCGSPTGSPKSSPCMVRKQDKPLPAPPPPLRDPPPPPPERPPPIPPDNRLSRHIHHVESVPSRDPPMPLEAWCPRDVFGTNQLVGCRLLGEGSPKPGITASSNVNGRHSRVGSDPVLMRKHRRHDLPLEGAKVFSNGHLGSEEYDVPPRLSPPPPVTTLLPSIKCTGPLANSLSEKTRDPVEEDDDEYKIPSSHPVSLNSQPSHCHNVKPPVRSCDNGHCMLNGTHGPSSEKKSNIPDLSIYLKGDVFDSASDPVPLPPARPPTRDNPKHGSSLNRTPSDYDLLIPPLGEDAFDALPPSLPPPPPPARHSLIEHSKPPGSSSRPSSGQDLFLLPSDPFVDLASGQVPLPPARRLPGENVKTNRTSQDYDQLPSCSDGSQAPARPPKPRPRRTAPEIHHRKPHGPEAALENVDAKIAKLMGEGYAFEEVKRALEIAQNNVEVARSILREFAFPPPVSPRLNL

[6] = Induction of anti-CD3/CD28 antibodies-stimulated human T cell activation at 1 uM assessed fold increase in IL-2 secretion measured by ELISA assay; assay type: functional, T cell line
[7] = Induction of anti-CD3/CD28 antibodies-stimulated human T cell activation at 1 uM assessed fold increase in CD25 expression measured by ELISA assay; assay type: functional, T cell line

Structure (SMILES)	IC50 [5]	fold change (FC) [1]	fold change (FC) [2]	fold change (FC) [3]	fold change (FC) [4]	fold change (FC) [6]	fold change (FC) [7]	fold change (FC) ([2]; 0.3 µM)	fold change (FC) ([7]; 1 µM)
Cn1cnnc1CC1(c2cccc(N3Cc4c(cc(CN5CC6CC6(C)C5)cc4C(F)(F)F)C3=O)c2)COC1 (centres undefined)	< 0.1 µM	>=7.5	1.01	>=1.001	>=0.201	>=7.5	1.01	–	–
C[C@@H](c1cc2c(c(C(F)(F)F)c1)CN(c1cccc(C3([C@H](F)c4nncn4C)COC3)c1)C2=O)N1CCC2(CC2)C1 (single isomer, unassigned)	< 0.1 µM	>=7.5	>=1.76	>=1.001	>=0.201	>=7.5	>=1.76	–	–
Cc1cc(C(=O)Nc2cccc(C3([C@@H](F)c4nncn4C)COC3)c2)nc(C2CC2)n1	< 0.1 µM	2.51	1.01	>=1.001	>=0.201	>=7.5	1.31	–	–
Cn1cnnc1CC1(c2cccc(N3Cc4c(cc(CC5CCCO5)cc4C(F)(F)F)C3=O)c2)COC1 (centres undefined)	< 0.1 µM	2.51	1.01	0.801	0.101	>=7.5	1.01	–	–
Cn1cnnc1CC1(c2cccc(N3Cc4c(cc(C5CN6CCC5CC6)cc4C(F)(F)F)C3=O)c2)COC1 (centres undefined)	< 0.1 µM	2.51	1.01	0.601	<=0.05	5	1.01	–	–
Cn1cnnc1[C@H](F)C1(c2cccc(N3Cc4c(cc(CN5C6CCCC5CC6)cc4C(F)(F)F)C3=O)c2)COC1 (stereo in doubt; 671b)	< 0.1 µM	>=7.5	–	>=1.001	>=0.201	>=7.5	–	>=1.76	>=1.76
Cn1cnnc1CC1(c2cccc(N3Cc4c(ccnc4C(F)(F)F)C3=O)c2)COC1	< 0.1 µM	1.01	1.01	0.601	<=0.05	1.01	1.01	–	–
Cn1cnnc1CC1(c2cccc(N3Cc4c(cc(CN5[C@@H]6CC[C@H]5C[C@H](F)C6)cc4C(F)(F)F)C3=O)c2)COC1	< 0.1 µM	5	>=1.76	>=1.001	>=0.201	>=7.5	>=1.76	–	–
Cn1cnnc1CC1(c2cccc(N3Cc4c(cc(CN5Cc6cccnc6C5)cc4C(F)(F)F)C3=O)c2)COC1	< 0.1 µM	2.51	1.31	>=1.001	>=0.201	>=7.5	1.31	–	–
Cc1nc2c(o1)CCN(Cc1cc3c(c(C(F)(F)F)c1)CN(c1cccc(C4(Cc5nncn5C)COC4)c1)C3=O)C2	< 0.1 µM	5	1.01	>=1.001	>=0.201	>=7.5	1.31	–	–
Cn1cnnc1CC1(c2cccc(N3Cc4c(cc(CN5CCOC6(CCC6)C5)cc4C(F)(F)F)C3=O)c2)COC1	< 0.1 µM	>=7.5	1.01	>=1.001	>=0.201	>=7.5	1.01	–	–
Cn1cnnc1CC1(c2cccc(N3Cc4c(cc(CN5CCCCC(F)C5)cc4C(F)(F)F)C3=O)c2)COC1 (centres undefined)	< 0.1 µM	5	1.31	>=1.001	>=0.201	>=7.5	1.31	–	–
Cn1cnnc1CC1(c2cccc(N3Cc4c(cc(CN5CC[C@H](c6ccccc6)C5)cc4C(F)(F)F)C3=O)c2)COC1	< 0.1 µM	5	1.01	>=1.001	>=0.201	>=7.5	1.01	–	–
Cn1cnnc1[C@@H](F)C1(c2cccc(N3Cc4c(cc(CN5CCCCC5)cc4C(F)(F)F)C3=O)c2)COC1	< 0.1 µM	>=7.5	1.31	>=1.001	0.101	>=7.5	1.51	–	–
Cn1cnnc1CC1(c2cccc(NC(=O)c3cc(CN4CC[C@H](O)C4)nc(C4CC4)n3)c2)COC1	< 0.1 µM	1.01	1.01	0.601	0.051	2.51	1.01	–	–

Continued, in another order:

IC50 [5]	Structure (SMILES)	fold change (FC) [1]	fold change (FC) [2]	fold change (FC) [3]	fold change (FC) [4]	fold change (FC) [6]	fold change (FC) [7]	fold change (FC) ([2]; 0.3 µM)	fold change (FC) ([7]; 1 µM)
< 0.1 µM	C[C@@H](c1cc2c(c(C(F)(F)F)c1)CN(c1cccc(C3(Cc4nncn4C)COC3)c1)C2=O)N1CC(F)C1	5	1.31	>=1.001	0.151	>=7.5	1.51	–	–
< 0.1 µM	Cn1cnnc1CC1(c2cccc(N3Cc4c(cc(OC(F)F)cc4C(F)(F)F)C3=O)c2)COC1	2.51	1.01	0.801	0.051	5	1.31	–	–
< 0.1 µM	Cn1cnnc1CC1(c2cccc(N3Cc4c(cc(CN5CCCC(F)(F)C5)cc4C(F)(F)F)C3=O)c2)COC1	>=7.5	1.51	>=1.001	>=0.201	>=7.5	1.51	–	–
< 0.1 µM	Cn1cnnc1CC1(c2cccc(N3Cc4c(cc(CN5CC6CC5CO6)cc4C(F)(F)F)C3=O)c2)COC1 (centres undefined)	2.51	1.01	0.801	0.051	5	1.01	–	–
< 0.1 µM	Cn1cnnc1CC1(c2cccc(NC(=O)c3cc(CN4CCC5CC54)cc(C4CC4)n3)c2)COC1 (centres undefined)	>=7.5	1.31	>=1.001	>=0.201	>=7.5	1.31	–	–
< 0.1 µM	CC(c1cc(C(=O)Nc2cccc(C3(Cc4nncn4C)COC3)c2)nc(C2CC2)n1)N1CCC2(CC2)C1 (single isomer, unassigned; 592a)	5	1.01	>=1.001	>=0.201	>=7.5	1.01	–	–
< 0.1 µM	CC(c1cc(C(=O)Nc2cccc(C3(Cc4nncn4C)COC3)c2)nc(C2CC2)n1)N1CCCC1 (centres undefined)	>=7.5	1.31	>=1.001	>=0.201	>=7.5	1.31	–	–
